Converted amounts (≈) assume the structure as drawn.
Columns and labels:
Type in all cases: functional
Escherichia coli [1] = assay: Antibacterial activity against Escherichia coli 26R793 by Etest
Escherichia coli [2] = assay: Antibacterial activity against metallo-beta-lactamase VIM12 expressing Escherichia coli 28 isolate from decubitus ulcer infection patient by Etest
Escherichia coli [3] = assay: Antibacterial activity against Escherichia coli transconjugant carrying pEC28 isolate eby Etest

Structure (SMILES)	MIC (Escherichia coli [1]) [µg/mL]	MIC (Escherichia coli [2]) [µg/mL]	MIC (Escherichia coli [3]) [µg/mL]
NCC[C@H](O)C(=O)N[C@@H]1C[C@H](N)[C@@H](O[C@H]2O[C@H](CN)[C@@H](O)[C@H](O)[C@H]2O)[C@H](O)[C@H]1O[C@H]1O[C@H](CO)[C@@H](O)[C@H](N)[C@H]1O [AMIKACIN]	2 (≈ 3.42 µM)	128 (≈ 219 µM)	48 (≈ 82 µM)
CC1(C)S[C@@H]2[C@H](NC(=O)[C@H](N)c3ccc(O)cc3)C(=O)N2[C@H]1C(=O)O [AMOXICILLIN]	4 (≈ 10.9 µM)	> 256	32 (≈ 87.6 µM)
C[C@H]1[C@H](NC(=O)/C(=N\OC(C)(C)C(=O)O)c2csc(N)n2)C(=O)N1S(=O)(=O)O [AZTREONAM]	0.094 (≈ 0.216 µM)	1 (≈ 2.3 µM)	0.5 (≈ 1.15 µM)
CO/N=C(\C(=O)N[C@@H]1C(=O)N2C(C(=O)[O-])=C(C[N+]3(C)CCCC3)CS[C@H]12)c1csc(N)n1 [CEFEPIME]	0.094 (≈ 0.196 µM)	12 (≈ 25 µM)	1 (≈ 2.08 µM)
CO/N=C(\C(=O)N[C@@H]1C(=O)N2C(C(=O)O)=C(COC(C)=O)CS[C@H]12)c1csc(N)n1 [CEFOTAXIME]	0.094 (≈ 0.206 µM)	> 32	8 (≈ 17.6 µM)
CO[C@@]1(NC(=O)Cc2cccs2)C(=O)N2C(C(=O)O)=C(COC(N)=O)CS[C@@H]21 [CEFOXITIN]	8 (≈ 18.7 µM)	> 256	32 (≈ 74.9 µM)
CC(C)(O/N=C(\C(=O)N[C@@H]1C(=O)N2C(C(=O)[O-])=C(C[n+]3ccccc3)CS[C@H]12)c1csc(N)n1)C(=O)O [CEFTAZIDIME]	0.75 (≈ 1.37 µM)	> 256	4 (≈ 7.32 µM)
O=C(O)c1cn(C2CC2)c2cc(N3CCNCC3)c(F)cc2c1=O [CIPROFLOXACIN]	0.047 (≈ 0.142 µM)	0.047 (≈ 0.142 µM)	0.047 (≈ 0.142 µM)
C[C@@H](O)[C@H]1C(=O)N2C(C(=O)O)=C(S[C@@H]3CN[C@H](C(=O)Nc4cccc(C(=O)O)c4)C3)[C@H](C)[C@H]12 [ERTAPENEM]	0.064 (≈ 0.135 µM)	0.5 (≈ 1.05 µM)	0.094 (≈ 0.198 µM)
C[C@@H](O)[C@H]1C(=O)N2C(C(=O)O)=C(SCCNC=N)C[C@H]12 [IMIPENEM ANHYDROUS]	0.5 (≈ 1.67 µM)	1 (≈ 3.34 µM)	–
C[C@@H](O)[C@H]1C(=O)N2C(C(=O)O)=C(S[C@@H]3CN[C@H](C(=O)N(C)C)C3)[C@H](C)[C@H]12 [MEROPENEM]	0.032 (≈ 0.0834 µM)	0.25 (≈ 0.652 µM)	0.023 (≈ 0.06 µM)
CN(C)[C@@H]1C(O)=C(C(N)=O)C(=O)[C@@]2(O)C(O)=C3C(=O)c4c(O)cccc4[C@@](C)(O)[C@H]3C[C@@H]12 [TETRACYCLINE]	1 (≈ 2.25 µM)	> 256	1 (≈ 2.25 µM)
